Measured values from ChEMBL document CHEMBL5465560, “Selectivity Literature for EUbOPEN Chemogenomic Library” (2024).
Numbering of substitutions follows the chain as printed.

Key:
[1] = target: Cyclin-dependent kinase 9 (Homo sapiens, UniProt P50750); assay: Selectivity interaction (Kinase panel (KiNativ target engagement assay in Jurkat cells)) EUB0001635a CDK9; assay type: cell-based; conditions: at 1 µM
[2] = target: Receptor-type tyrosine-protein kinase FLT3 (Homo sapiens) (UniProt P36888); assay: (§1) Selectivity interaction (KinomeScan (DiscoverX)) EUB0001049a FLT3; conditions: at 1 µM
[3] = system: T1, Receptor-type tyrosine-protein kinase FLT3 (Homo sapiens), P36888 [K663Q]; assay: as §1; conditions: at 1 µM
T1 sequence (whole entry): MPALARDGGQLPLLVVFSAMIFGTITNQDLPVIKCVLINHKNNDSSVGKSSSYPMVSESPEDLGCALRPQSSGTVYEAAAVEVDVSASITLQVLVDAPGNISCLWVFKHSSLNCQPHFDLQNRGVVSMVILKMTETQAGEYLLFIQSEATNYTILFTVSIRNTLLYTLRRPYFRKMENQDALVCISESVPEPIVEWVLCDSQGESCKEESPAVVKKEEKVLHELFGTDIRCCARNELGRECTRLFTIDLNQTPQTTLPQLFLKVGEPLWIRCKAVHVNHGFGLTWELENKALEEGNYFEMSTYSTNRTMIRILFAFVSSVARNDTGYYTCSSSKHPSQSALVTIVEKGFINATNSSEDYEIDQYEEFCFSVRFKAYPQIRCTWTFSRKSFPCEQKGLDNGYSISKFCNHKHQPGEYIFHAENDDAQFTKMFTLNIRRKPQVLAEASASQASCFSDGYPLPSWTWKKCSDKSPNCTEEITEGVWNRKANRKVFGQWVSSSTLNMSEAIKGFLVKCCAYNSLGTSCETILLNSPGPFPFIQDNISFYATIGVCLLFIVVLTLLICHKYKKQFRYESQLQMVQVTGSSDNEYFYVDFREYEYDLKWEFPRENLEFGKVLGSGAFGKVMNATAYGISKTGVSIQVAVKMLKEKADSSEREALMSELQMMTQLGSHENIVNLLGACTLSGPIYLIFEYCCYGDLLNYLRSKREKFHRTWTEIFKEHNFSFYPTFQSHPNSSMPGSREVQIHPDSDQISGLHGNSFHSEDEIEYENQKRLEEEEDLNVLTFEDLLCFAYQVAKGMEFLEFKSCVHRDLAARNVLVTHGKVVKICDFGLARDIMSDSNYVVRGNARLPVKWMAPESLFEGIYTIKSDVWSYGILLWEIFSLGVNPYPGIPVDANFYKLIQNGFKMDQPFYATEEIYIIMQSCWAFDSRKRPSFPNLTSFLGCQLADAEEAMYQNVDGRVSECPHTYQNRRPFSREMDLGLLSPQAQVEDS

[4] = system: T2, Receptor-type tyrosine-protein kinase FLT3 (Homo sapiens), P36888 [N841I]; assay: as §1; conditions: at 1 µM
T2 sequence (whole entry): T1 sequence (whole entry) with Q663K, N841I

[5] = target: Serine/threonine-protein kinase/endoribonuclease IRE1 (Homo sapiens) (UniProt O75460); assay: Selectivity interaction (KinomeScan (DiscoverX)) EUB0001619a ERN1; conditions: at 1 µM
[6] = target: Mitogen-activated protein kinase 9 (Homo sapiens, UniProt P45984); assay: Selectivity interaction (Kinase panel (Invitrogen)) EUB0000639a MAPK9; conditions: at 200 nM
Chain of Mitogen-activated protein kinase 9 (P45984 whole entry, looked up): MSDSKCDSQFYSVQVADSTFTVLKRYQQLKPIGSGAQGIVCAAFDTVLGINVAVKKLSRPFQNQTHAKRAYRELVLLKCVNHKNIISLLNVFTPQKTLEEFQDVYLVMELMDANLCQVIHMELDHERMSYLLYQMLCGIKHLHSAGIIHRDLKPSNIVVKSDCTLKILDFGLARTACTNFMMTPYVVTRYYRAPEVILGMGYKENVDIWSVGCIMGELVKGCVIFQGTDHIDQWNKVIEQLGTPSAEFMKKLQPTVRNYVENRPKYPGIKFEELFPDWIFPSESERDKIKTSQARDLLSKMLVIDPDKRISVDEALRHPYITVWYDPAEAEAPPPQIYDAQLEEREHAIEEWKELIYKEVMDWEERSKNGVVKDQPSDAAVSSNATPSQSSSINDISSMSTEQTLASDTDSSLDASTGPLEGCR

Chain of Cyclin-dependent kinase 9 (P50750 whole entry): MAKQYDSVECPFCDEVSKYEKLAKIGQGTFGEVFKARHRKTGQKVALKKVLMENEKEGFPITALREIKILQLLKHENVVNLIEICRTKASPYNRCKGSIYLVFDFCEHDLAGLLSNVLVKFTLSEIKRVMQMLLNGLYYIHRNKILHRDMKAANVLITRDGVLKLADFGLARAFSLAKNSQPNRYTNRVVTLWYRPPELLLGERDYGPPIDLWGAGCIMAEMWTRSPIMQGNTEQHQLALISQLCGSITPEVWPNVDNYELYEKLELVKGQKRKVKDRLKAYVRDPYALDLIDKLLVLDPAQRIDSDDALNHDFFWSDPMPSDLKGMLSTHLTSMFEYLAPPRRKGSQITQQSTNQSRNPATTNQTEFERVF
Chain of Serine/threonine-protein kinase/endoribonuclease IRE1 (Homo sapiens) (O75460 19-977 limits assumed): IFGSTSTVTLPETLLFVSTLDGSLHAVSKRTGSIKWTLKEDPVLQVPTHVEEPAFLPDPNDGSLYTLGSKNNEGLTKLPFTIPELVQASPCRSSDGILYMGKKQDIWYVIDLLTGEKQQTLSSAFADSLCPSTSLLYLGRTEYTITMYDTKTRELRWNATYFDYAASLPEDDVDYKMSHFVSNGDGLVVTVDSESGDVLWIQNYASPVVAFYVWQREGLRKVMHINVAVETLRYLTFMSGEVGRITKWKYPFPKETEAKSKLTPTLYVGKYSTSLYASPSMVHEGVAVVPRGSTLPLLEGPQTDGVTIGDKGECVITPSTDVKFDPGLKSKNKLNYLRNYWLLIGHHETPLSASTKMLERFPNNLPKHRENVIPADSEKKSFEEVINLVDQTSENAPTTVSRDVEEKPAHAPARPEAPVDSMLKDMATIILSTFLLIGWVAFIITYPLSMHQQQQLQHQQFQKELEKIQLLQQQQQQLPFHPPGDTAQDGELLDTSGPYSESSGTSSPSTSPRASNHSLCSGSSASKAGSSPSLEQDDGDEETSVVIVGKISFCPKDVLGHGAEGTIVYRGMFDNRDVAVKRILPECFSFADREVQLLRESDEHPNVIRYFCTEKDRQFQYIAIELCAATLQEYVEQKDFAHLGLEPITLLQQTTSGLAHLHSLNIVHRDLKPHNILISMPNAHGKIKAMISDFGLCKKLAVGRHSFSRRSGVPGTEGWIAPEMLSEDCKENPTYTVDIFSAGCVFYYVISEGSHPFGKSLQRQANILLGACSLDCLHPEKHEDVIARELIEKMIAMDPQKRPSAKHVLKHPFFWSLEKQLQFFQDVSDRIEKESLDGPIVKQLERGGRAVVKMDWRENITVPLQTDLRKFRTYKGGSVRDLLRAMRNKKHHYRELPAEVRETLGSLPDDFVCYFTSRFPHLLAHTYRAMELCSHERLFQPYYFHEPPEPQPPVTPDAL

C=CC(=O)Nc1ccc(C(=O)Nc2[nH]nc3c2CN(C(=O)N[C@H](CN(C)C)c2ccccc2)C3(C)C)cc1
% of engagement [1]: -78.1%

COc1cc(Nc2nc(C)cc(-c3cnn4nc(OC)ccc34)n2)cc(C(F)(F)F)c1
% of control [2]: 100% | % of control [3]: 78% | % of control [4]: 100%

N#Cc1cccc(-c2c[nH]c3ncnc(N4CCOCC4)c23)c1
% of control [5]: 74%

CC[C@@H]1[C@H](F)C(=O)N[C@@H]1COc1nccc2cc(C(N)=O)c(OC)cc12 [ZIMLOVISERTIB]
% of inhibition [6]: 0.603%
